Measurements reported in PubChem BioAssay AID210 (DTP/NCI, 2004).
Toxic doses and inconclusive results are not listed. Rule for the calls: active = survival T/C of 150% or more; inactive = T/C below 125% in these data.

System: CD2F1 mice, ip Colon 26 adenocarcinoma, median survival T/C
Assay: NCI In Vivo Anticancer Drug Screen. Data for tumor model Colon 26 Adenocarcinoma (intraperitoneal) in CD2F1 (CDF1) mice
Details: endpoint: median survival time, higher = longer survival
Protocol: The antitumor activity of compounds was measured in mice bearing transplantable tumors. Survival or tumor size were measured and the results are expressed as the measurement made in the treated group (T) divided by the measurement made in the vehicle treated control group (C). The tumor model used in this assay is Colon 26 Adenocarcinoma (intraperitoneal) in CD2F1 (CDF1) mice

[1] = dose: 6.25 mg/kg/injection, schedule: Q04DX003 (ip), vehicle: saline with Tween-80
[2] = dose: 25.0 mg/kg/injection, schedule: Q04DX003 (ip), vehicle: saline with Tween-80
[3] = dose: 50.0 mg/kg/injection, schedule: Q04DX003 (ip), vehicle: saline with Tween-80

Measured: T/C

COC(=O)[C@@]12OC[C@]34[C@H]([C@@H](O)[C@@H]1O)[C@@]1(C)CC(=O)C(O)=C(C)[C@@H]1C[C@H]3OC(=O)[C@H](OC(=O)/C=C(\C)C(C)C)[C@@H]24
inactive: dose: 0.66 mg/kg/injection, schedule: Q04DX003 (iv), vehicle: saline with Tween-80 97 % of control | dose: 1.0 mg/kg/injection, schedule: Q04DX003 (iv), vehicle: saline with Tween-80 94 % of control | dose: 1.5 mg/kg/injection, schedule: Q04DX003 (iv), vehicle: saline with Tween-80 94 % of control | dose: 2.3 mg/kg/injection, schedule: Q04DX003 (iv), vehicle: saline with Tween-80 92 % of control | dose: 3.5 mg/kg/injection, schedule: Q04DX003 (iv), vehicle: saline with Tween-80 96 % of control

C=C1C(=O)OC2CC1CCC1(C)OC1CCC(C)=CCCC2(C)O (centres undefined)
inactive: dose: 22.5 mg/kg/injection, schedule: Q04DX002 (ip), vehicle: Klucel (hydroxypropylcellulose) (HPC) 105 % of control | dose: 45.0 mg/kg/injection, schedule: Q04DX002 (ip), vehicle: Klucel (hydroxypropylcellulose) (HPC) 97 % of control | dose: 90.0 mg/kg/injection, schedule: Q04DX002 (ip), vehicle: Klucel (hydroxypropylcellulose) (HPC) 89 % of control

Nc1ncn(C2OC(CO)C(O)C2O)c(=O)n1 (centres undefined)
inactive: dose: 13.0 mg/kg/injection, schedule: Q04DX003 (iv), vehicle: saline 107 % of control | dose: 21.0 mg/kg/injection, schedule: Q04DX003 (iv), vehicle: saline 92 % of control

CCc1ncnc2cc(OCC3CO3)c(OC)cc12 (centres undefined)
inactive: dose: 25.0 mg/kg/injection, schedule: Q03DX002 (iv), vehicle: saline 90 % of control | dose: 40.0 mg/kg/injection, schedule: Q03DX002 (ip), vehicle: saline 97 % of control | dose: 40.0 mg/kg/injection, schedule: Q03DX002 (sc), vehicle: saline 86 % of control | dose: 60.0 mg/kg/injection, schedule: Q03DX002 (ip), vehicle: saline 114 % of control | dose: 60.0 mg/kg/injection, schedule: Q03DX002 (iv), vehicle: saline 95 % of control | dose: 60.0 mg/kg/injection, schedule: Q03DX002 (sc), vehicle: saline 86 % of control

CC(C)CCC[C@@H](C)[C@H]1CC[C@H]2[C@@H]3CC=C4C[C@@H](OC(=O)Cc5ccc(N(CCCl)CCCl)cc5)CC[C@]4(C)[C@H]3CC[C@]12C
inactive: dose: 50.0 mg/kg/injection, schedule: Q04DX002 (ip), vehicle: Klucel (hydroxypropylcellulose) (HPC) 91 % of control | dose: 100.0 mg/kg/injection, schedule: Q04DX002 (ip), vehicle: Klucel (hydroxypropylcellulose) (HPC) 101 % of control | dose: 200.0 mg/kg/injection, schedule: Q04DX002 (ip), vehicle: Klucel (hydroxypropylcellulose) (HPC) 101 % of control | dose: 400.0 mg/kg/injection, schedule: Q04DX002 (ip), vehicle: Klucel (hydroxypropylcellulose) (HPC) 101 % of control

CCCCNC(C)[C@]1(O)Cc2c(O)c3c(c(O)c2[C@@H](OC2CC(N)C(O)C(C)O2)C1)C(=O)c1c(OC)cccc1C3=O (some centres undefined)
inactive: dose: 23.0 mg/kg/injection, schedule: Q07DX002 (iv), vehicle: saline 110 % of control | dose: 35.0 mg/kg/injection, schedule: Q07DX002 (iv), vehicle: saline 122 % of control | dose: 54.0 mg/kg/injection, schedule: Q07DX002 (iv), vehicle: saline 110 % of control | dose: 84.0 mg/kg/injection, schedule: Q07DX002 (iv), vehicle: saline 113 % of control

CC(=O)O[C@@H]1[C@@H](O)C2=C3[C@]4(C)[C@@H]1C(C)(C)C(=O)C[C@@H]4[C@]3(O)[C@H](OC(C)=O)[C@@]1(C[C@@H]1C)C2=O
inactive: dose: 6.25 mg/kg/injection, schedule: Q04DX003 (ip), vehicle: distilled water + Tween-80 94 % of control | [1] 106 % of control | dose: 12.5 mg/kg/injection, schedule: Q04DX003 (ip), vehicle: distilled water + Tween-80 106 % of control | dose: 25.0 mg/kg/injection, schedule: Q04DX003 (ip), vehicle: distilled water + Tween-80 106 % of control | [2] 99 % of control | dose: 50.0 mg/kg/injection, schedule: Q04DX003 (ip), vehicle: distilled water + Tween-80 100 % of control | [3] 106 % of control | dose: 100.0 mg/kg/injection, schedule: Q04DX003 (ip), vehicle: saline with Tween-80 106 % of control

CCOC(=O)CC(SP(=S)(OC)OC)C(=O)OCC (centres undefined)
inactive: dose: 25.0 mg/kg/injection, schedule: Q04DX002 (ip), vehicle: saline 103 % of control | dose: 50.0 mg/kg/injection, schedule: Q04DX002 (ip), vehicle: saline 94 % of control | dose: 100.0 mg/kg/injection, schedule: Q04DX002 (ip), vehicle: saline 104 % of control | dose: 200.0 mg/kg/injection, schedule: Q04DX002 (ip), vehicle: saline 90 % of control | dose: 400.0 mg/kg/injection, schedule: Q04DX002 (ip), vehicle: saline 91 % of control

COc1cccc2c1C(=O)c1c(O)c3c(c(O)c1C2=O)C[C@@](O)(C(=O)CO)C[C@@H]3OC1CC(N(C)C)C(O)C(C)O1 (some centres undefined)
inactive: dose: 2.16 mg/kg/injection, schedule: Q04DX003 (ip), vehicle: water 103 % of control | dose: 5.6 mg/kg/injection, schedule: Q07DX003 (iv), vehicle: water 107 % of control | dose: 9.0 mg/kg/injection, schedule: Q07DX003 (iv), vehicle: water 101 % of control | dose: 14.0 mg/kg/injection, schedule: Q07DX003 (iv), vehicle: water 92 % of control

COc1ccc(CC2C(=O)NC(C)C(=O)N(C)C3C(=O)N(C)C(Cc4ccc(O)c(c4)Oc4ccc(cc4)C3O)C(=O)NC(C)C(=O)NC(C)C(=O)N2C)cc1 (centres undefined) (tested in a mixture with another compound)
inactive: dose: 0.5 mg/kg/injection, schedule: Q04DX003 (ip), vehicle: saline 98 % of control | dose: 1.0 mg/kg/injection, schedule: Q04DX003 (ip), vehicle: saline 98 % of control | dose: 2.0 mg/kg/injection, schedule: Q04DX003 (ip), vehicle: saline 99 % of control

COc1cc([C@@H]2c3cc4c(cc3[C@@H](OC3OC5CO[C@@H](c6cccs6)OC5C(O)C3O)[C@H]3COC(=O)[C@H]23)OCO4)cc(OC)c1O (some centres undefined)
inactive: dose: 5.0 mg/kg/injection, schedule: Q03DX002 (ip), vehicle: other 90 % of control | dose: 10.0 mg/kg/injection, schedule: Q03DX002 (ip), vehicle: other 92 % of control | dose: 30.0 mg/kg/injection, schedule: Q03DX002 (ip), vehicle: other 104 % of control

O=C(CCCN1CCC(O)(c2cccc(C(F)(F)F)c2)CC1)c1ccc(F)cc1
inactive: dose: 3.12 mg/kg/injection, schedule: Q04DX003 (ip), vehicle: Klucel (hydroxypropylcellulose) (HPC) 94 % of control | dose: 6.25 mg/kg/injection, schedule: Q04DX003 (ip), vehicle: Klucel (hydroxypropylcellulose) (HPC) 95 % of control | dose: 12.5 mg/kg/injection, schedule: Q04DX003 (ip), vehicle: Klucel (hydroxypropylcellulose) (HPC) 99 % of control | dose: 25.0 mg/kg/injection, schedule: Q04DX003 (ip), vehicle: Klucel (hydroxypropylcellulose) (HPC) 97 % of control | dose: 50.0 mg/kg/injection, schedule: Q04DX003 (ip), vehicle: Klucel (hydroxypropylcellulose) (HPC) 105 % of control

COc1cc(C)c2c(c1C=O)Oc1c(c(C)c(O)c3c1C(O)OC3=O)OC2=O (centres undefined)
inactive: dose: 3.12 mg/kg/injection, schedule: Q04DX003 (ip), vehicle: saline with Tween-80 103 % of control | [1] 103 % of control | dose: 12.5 mg/kg/injection, schedule: Q04DX003 (ip), vehicle: saline with Tween-80 104 % of control | [2] 101 % of control | [3] 112 % of control

NCCc1ccc(O)c(O)c1
inactive: dose: 25.0 mg/kg/injection, schedule: Q04DX003 (ip), vehicle: saline 94 % of control | dose: 50.0 mg/kg/injection, schedule: Q04DX003 (ip), vehicle: saline 109 % of control
